These results are taken from patent US9273330B2, “Butanol tolerance in microorganisms” (Butamax Advanced Biofuels LLC, priority 2012, dated 2016).

Assay [1] relates to population of cells that had survived 24 hour exposure to 2.5% isobutanol during Selection IV. As to the kind of experiment: Serial passage in SEGU culture medium with glucose and isobutanol. The class given is cell-based, Saccharomyces cerevisiae. Conditions: 30° C., after 48 hours (1:2 dilution after 24 hours). Here is the method: A population of cells that had been evolved through four isobutanol exposures (Selection IV, Example 2) was repeatedly sub-cultured in growth medium supplemented with glucose and isobutanol to select for cells that were better able to utilize glucose in the presence of isobutanol.
A population of cells that had survived 24 hour exposure to 2.5% isobutanol during Selection IV (see Table 7) was diluted into SEGU culture medium (SEU with 0.2% glucose) to OD600=0.8. The diluted cell suspension was divided into 1.5 ml cultures, dispensed into 2 ml sterile screw cap tubes and supplemented with various concentrations of isobutanol. The cultures were incubated at 30° C. on a roller drum. After 24 hours, the cultures were diluted 1:2 with the SEGU culture medium comprising the same amount of isobutanol as the previous culture. […] The 0.5% culture was serially sub-cultured 10 times by diluting the culture to approximately OD600=0.5 in SEGU culture medium containing 0.5% isobutanol and incubating the diluted culture at 30° C. for 24 to 48 hours before diluting the culture again.

Assay [2] relates to isobutanologen PNY1530. Kind of assay: Isobutanol selection: viable cell count after 24 hour exposure of high-density PNY1530 cultures. It counts as cell-based, Saccharomyces cerevisiae. On the procedure: Cultures of PNY1530 were subjected to five rounds of selection in increasing concentrations of isobutanol. The first round of isobutanol selection was initiated by growing PNY1530 to OD600=1.8 in 100 ml of SEU culture medium (yeast nitrogen base supplemented with Sigma yeast synthetic dropout medium without uracil (Sigma Y1501) and with 0.2% ethanol). The cells were centrifuged, resuspended in 100 ml of fresh culture medium and grown for several hours to approximately 3 OD600 units. The culture was centrifuged and resuspended at OD600=100 (approximately 5×10^8 cfu/ml) in 3 ml of culture medium without ethanol. A small sample was removed from the cell suspension for a viable cell count, and the remaining cell suspension was divided into three cultures containing 1.5% isobutanol, 1.7% isobutanol or 2.0% isobutanol. Each culture was incubated at 30° C. on a roller drum for 24 hours. The cultures were then centrifuged, and the cell pellets were each resuspended in 1 ml of culture medium without isobutanol or ethanol. Small samples were removed from the cultures for viable cell counts, and the remaining portion of each cell suspension (approximately 975 μl) was inoculated into 10 ml of SEU culture medium. The cultures were incubated at 30° C. with shaking. In general, each subsequent round of isobutanol selection was initiated with cells that had survived the highest level of isobutanol selection in the previous round of exposure.
Increased numbers of survivors were observed following each exposure to isobutanol (Table 7). For example, only 1.8% of the cells survived 24 hour exposure to 2.0% isobutanol during Selection I whereas 100% of the population survived 24 hour exposure to 2.0% isobutanol during Selection IV.

For `CC(C)CO` [Isobutanol, 2-methyl-1-propanol], the “highest concentration that permitted growth” value in assay [1] was 0.5%. In addition, the “Percent Survival” value in assay [2] (1.5% isobutanol, Selection I) is given as 73; in assay [2] (1.7% isobutanol, Selection I), 53; in assay [2] (2.0% isobutanol, Selection I) it was 1.8 →; in assay [2] (2.0% isobutanol, Selection I, listed as isobutanol), 1.8; in assay [2] (2.0% isobutanol, Selection II), 12 →; in assay [2] (2.0% isobutanol, Selection III), 21. Moreover, the “Percent Survival” value in assay [2] (2.0% isobutanol, Selection IV) is 100; in assay [2] (2.2% isobutanol, Selection III) it was 0.8; in assay [2] (2.2% isobutanol, Selection IV) it was 45; in assay [2] (2.5% isobutanol, Selection II) it was 0.0003; in assay [2] (2.5% isobutanol, Selection III), 0.0006 →; in assay [2] (2.5% isobutanol, Selection IV), 14 →. For the same molecule, the “Percent Survival” value in assay [2] (2.5% isobutanol, Selection V) was 4.5; in assay [2] (2.7% isobutanol, Selection II) it was “no survivors were detected”; in assay [2] (2.7% isobutanol, Selection V), 0.004.
